“And” between values parts separate entries of the source, which are not always exact repeats. Equal entries are not always repeated. Where two headings read alike, the source gives them in different places.
Assays:
[1] = system: Soybean seeds of the variety Williams 82; experiment: Example A: soybean seed treatment with antioxidants, with or without Fluopyram; cotyledon total and healthy area; details: for Average Cotyledon Area (mm^2) Growth Promotion with Antioxidant / Increase in Healthy Area % Difference: antioxidant at effective concentration versus no antioxidant; for Average Cotyledon Area / Average % Healthy Area / Average Healthy Area: after 10 days
[2] = system: Soybean seeds of the variety Williams 82; details: with ILEVO 0.15 mg ai per seed, versus ILEVO alone, CaCl2•2 H2O 10.000 mM, about 10 days after planting
Experimental: All solutions were pH adjusted to pH 5.6-6.2. In addition, a seed treatment was prepared with a cobalt and molybdenum combination (“CoMo”) containing the cobalt chloride and sodium molybdate applied at the respective doses shown in Table 9. A commercial zinc solution was also applied as a seed treatment. “Macro”, “Micro” and “Complete” nutrient solution cocktails which combined all the respective nutrients from Table 9 into one nutrient solution were included as seed treatments.
About 10 days after planting the treated seeds, the emerging seedlings were analyzed to determine their average plant height and average unifoliate leaf area.

[3] = system: Soybean seeds of the variety Williams 82; details: for Average Area (Total Leaf Area) / Average Height (Plant Height): 15 Days after Planting
Experimental: Plant heights and total leaf area were determined 15 days after planting. The total leaf area was calculated by adding the unifoliate leaf area and the trifoliate leaf area of a soybean plant. Between 11 and 15 replicates were evaluated for each measurement. Average values along with their standard errors are reported.

[4] = UTC seeds (no FLU) plus antioxidant at effective concentration (Beta-Carotene 200 μM, Co-enzyme Q10 3 μM, Meso-Zeaxanthin 250 ppm, L-ascorbic acid 800 ppm, alpha tocopherol phosphate disodium 100 ppm)
[5] = UTC seeds (no FLU) plus antioxidant at effective concentration (as in E7)
[6] = seeds treated with FLU 0.15 mg ai/seed plus antioxidant at effective concentration (200 μM, 3 μM, 250 ppm, 800 ppm, 100 ppm as in E4)
[7] = seeds treated with FLU 0.15 mg ai/seed plus antioxidant at effective concentration (Beta-Carotene 200 μM, Co-enzyme Q10 3 μM, Meso-Zeaxanthin 250 ppm, L-ascorbic acid 800 ppm, alpha tocopherol phosphate disodium 100 ppm)
[8] = ILEVO 0.15 mg ai per seed + 10 mM CaCl2•2 H2O
[9] = ILEVO 0.15 mg ai per seed + 75 mM CaCl2•2 H2O
[10] = ILEVO 0.15 mg ai per seed + 150 mM CaCl2•2 H2O
[11] = calcium chloride added to ILEVO seed treatment versus ILEVO alone, effect increased at higher concentrations
[12] = two additional soybean varieties besides Williams 82
[13] = FLU 0.15 mg ai/seed alone (antioxidant 0 μM / 0 ppm; control of the respective antioxidant series)

Molecule | Average Cotyledon Area (mm^2) Growth Promotion with Antioxidant ([1]; FLU-treated seeds) | Increase in Healthy Area % Difference ([1]; FLU-treated seeds) | Average Cotyledon Area [1, 4] | Average % Healthy Area [1, 5] | Average Healthy Area [1, 5] | Average Cotyledon Area (mm^2) Growth Promotion with Antioxidant ([1]; UTC seeds (no FLU)) | Increase in Healthy Area % Difference ([1]; UTC seeds (no FLU)) | Average % Healthy Area [1, 6] | Average Healthy Area [1, 6] | Average Cotyledon Area [1, 7] | further results
Meso-Zeaxanthin | 78.23 mm^2 | 10.05% | 350.59 mm^2 | 99.66% | 349.18 mm^2 | 30.66 mm^2 | 4.59% | 69.68% | 230.46 mm^2 | 331.07 mm^2 | 
[Ca+2].[Cl-].[Cl-] [CaCl2•2 H2O, calcium chloride] |  |  |  |  |  |  |  |  |  |  | average plant height ([2]; FIG. 1): significantly increased; average unifoliate leaf area ([2]; FIG. 2): significantly increased; Average Area (Total Leaf Area) [3, 8]: 46.70 cm^2; Average Height (Plant Height) [3, 8]: 12.93 cm; Average Area (Total Leaf Area) [3, 9]: 53.89 cm^2; Average Height (Plant Height) [3, 9]: 13.69 cm; Average Area (Total Leaf Area) [3, 10]: 53.03 cm^2; Average Height (Plant Height) [3, 10]: 14.31 cm; height of the soybean plants [3, 11]: significantly increased; total leaf area of the soybean plants [3, 11]: significantly increased; effect on height of soybean plants treated with ILEVO [3, 12]: positive effect; effect on leaf area of soybean plants treated with ILEVO [3, 12]: positive effect
COC1=C(OC)C(=O)C(C/C=C(\C)CC/C=C(\C)CC/C=C(\C)CC/C=C(\C)CC/C=C(\C)CC/C=C(\C)CC/C=C(\C)CC/C=C(\C)CC/C=C(\C)CCC=C(C)C)=C(C)C1=O [Co-enzyme Q10] | 19.49 mm^2 | 10.25% | 416.55 mm^2 | 100.00% | 416.55 mm^2 | 47.57 mm^2 | 0.00% | 76.54% | 240.72 mm^2 | 312.31 mm^2 | 
O=C(NCCc1ncc(C(F)(F)F)cc1Cl)c1ccccc1C(F)(F)F [FLU, Fluopyram, reference compound] |  |  |  |  |  |  |  |  |  |  | Average % Healthy Area [1, 13]: 59.63% and 67.93% and 68.20% and 60.08% and 66.29%; Average Cotyledon Area [1, 13]: 252.85 mm^2 and 307.56 mm^2 and 290.71 mm^2 and 237.73 mm^2 and 292.81 mm^2; Average Healthy Area [1, 13]: 153.20 mm^2 and 210.37 mm^2 and 199.35 mm^2 and 142.71 mm^2 and 195.10 mm^2
